A word on the IC50: it is the concentration that inhibits the measured activity by half.

For test [1], the target named is TEM-1 (Class A beta-lactamase) (Escherichia coli, UniProt P62593). Nature of the test: Inhibition of beta-lactamase enzymes (nitrocefin hydrolysis), TEM-1. Format: biochemical. The note with it: read-out: Class A TEM-1 60 min IC50, nitrocefin 100 μM. The procedure: (§1) A buffer consisting of 0.1 M sodium phosphate (pH 7.0), 10 mM NaHCO3, and 0.005% Triton X-100 was used for all enzymes. The chromogenic substrate nitrocefin (SynGene, Bangalore, India) was used at 100 μM. Enzyme activity was monitored by the 490 nm absorbance increase upon nitrocefin hydrolysis. Assays were performed in clear polystyrene 384-well plates (Greiner Bio-One, Monroe, N.C.). Absorbance was measured for 1 hour at 30-s intervals using a Spectramax absorbance plate reader (Molecular Devices, Sunnyvale, Calif.). Measurement of beta-lactamase inhibition by INHIBITOR employed serial 3-fold dilutions of the inhibitor in assay buffer, ranging from 100 μM to 62.7 pM. A background absorbance progress curve for a control lacking enzyme and inhibitor was subtracted from each progress curve.
Sequence of TEM-1 (Class A beta-lactamase) (P62593 whole entry, looked up, species assumed): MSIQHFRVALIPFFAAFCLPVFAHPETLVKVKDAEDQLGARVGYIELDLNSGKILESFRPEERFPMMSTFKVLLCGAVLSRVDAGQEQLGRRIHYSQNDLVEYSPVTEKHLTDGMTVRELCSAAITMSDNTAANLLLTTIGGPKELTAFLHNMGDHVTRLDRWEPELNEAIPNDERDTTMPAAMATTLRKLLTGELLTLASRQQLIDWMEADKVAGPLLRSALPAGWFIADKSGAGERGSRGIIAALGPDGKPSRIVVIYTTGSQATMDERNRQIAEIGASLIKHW
(§2) The complete set of progress curves for one enzyme with all inhibitor concentrations was subjected to numerical integration with the program Kintek Global Kinetic Explorer (Kintek Corp, Snowshoe Pa.) to obtain a best-fit to the mechanism shown in Scheme 10.
(§3) where E, S, ES, P, I, and EI are the concentrations of the enzyme, nitrocefin, the enzyme-nitrocefin complex, the nitrocefin hydrolysis product, INHIBITOR, and the enzyme-INHIBITOR complex respectively. […] The values of k+2, k+3, and k−3 were fit. Concentration series offsets of the absorbance measurements were used to correct for slight absorbance baseline differences between wells. The parameter k+3 is equivalent to the second order rate constant kinact/Ki. In some cases, the inhibition was in rapid equilibrium on the experimental time scale, so that only the ratio k−3/k+3=Ki could be determined. Although k−3 represents reversal of inhibitor binding in Scheme 10, hydrolysis of the enzyme-inhibitor complex could not be excluded based on kinetic measurements.
(§4) Best-fit absorbance values from the above procedure at each time point for each compound concentration were exported to Excel.
(§5) where A is the best-fit absorbance without inhibitor and Ainhib is the best-fit absorbance in the presence of the inhibitor.
(§6) where [I] is the inhibitor concentration and n is the Hill coefficient. The Excel add-in XLfit (ID Business Solutions) was used for nonlinear regression.

In test [2] the target is OXA-48 (Class D beta-lactamase) (Klebsiella pneumoniae, UniProt Q6XEC0). Nature of the test: Inhibition of beta-lactamase enzymes (nitrocefin hydrolysis), OXA-48. The note with it: read-out: Class D OXA-48 60 min IC50, nitrocefin 100 μM. The class given is biochemical. As to the method:
as §1, §2, §3, §4, §5, §6

Each structure is given as a SMILES string. Structures can show the parent of a compound that is named as a salt.

Sequence of OXA-48 (Class D beta-lactamase) (Q6XEC0 whole entry, looked up, species assumed): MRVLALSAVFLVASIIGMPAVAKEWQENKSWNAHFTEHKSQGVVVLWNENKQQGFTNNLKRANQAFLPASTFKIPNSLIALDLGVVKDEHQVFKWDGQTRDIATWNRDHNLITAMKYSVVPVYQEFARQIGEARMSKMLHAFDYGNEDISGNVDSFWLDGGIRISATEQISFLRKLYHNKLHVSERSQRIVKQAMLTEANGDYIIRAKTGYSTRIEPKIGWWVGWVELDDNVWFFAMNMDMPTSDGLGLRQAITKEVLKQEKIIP

`NC(=O)[C@@H]1C(C2CC2)=C[C@@H]2CN1C(=O)N2O[C@H](F)C(=O)O` [Example 41, (2R)-2-(((2S,5R)-2-carbamoyl-3-cyclopropyl-7-oxo-1,6-diazabicyclo[3.2.1]oct-3-en-6-yl)oxy)-2-fluoroacetic acid lithium salt]: the IC50 was found to be 3.5 nM in test [1] and 6.4 nM in test [2].

As for `CC1=C[C@@H]2CN(C(=O)N2O[C@@H](F)C(=O)O)[C@@H]1C(=O)NOCC1CC1` [Example 70, (2S)-2-[[(2S,5R)-2-(cyclopropylmethoxycarbamoyl)-3-methyl-7-oxo-1,6-diazabicyclo[3.2.1]oct-3-en-6-yl]oxy]-2-fluoro-acetic acid lithium salt], the IC50 in test [1] was found to be 26 nM; in test [2] it was 87 nM.

As to `CC1=C[C@@H]2CN(C(=O)N2O[C@@H](F)C(=O)O)[C@@H]1C(=O)NOC[C@@H]1CCC(=O)N1` [Example 72, (2S)-2-fluoro-2-[[(2S,5R)-3-methyl-7-oxo-2-[(5-oxopyrrolidin-2-yl)methoxycarbamoyl]-1,6-diazabicyclo[3.2.1]oct-3-en-6-yl]oxy]acetic acid lithium salt], the IC50 was found to be 77 nM in test [1] and 110 nM in test [2].

Take `CC1=C[C@@H]2CN(C(=O)N2O[C@@H](F)C(=O)O)[C@@H]1C(=O)NC1COC1` [Example 66, (2S)-2-fluoro-2-[[(2S,5R)-3-methyl-2-(oxetan-3-ylcarbamoyl)-7-oxo-1,6-diazabicyclo[3.2.1]oct-3-en-6-yl]oxy]acetic acid lithium salt]: the IC50 was determined as 660 nM in test [1] and 12 nM in test [2].

`CC1=C[C@@H]2CN(C(=O)N2O[C@@H](F)C(=O)O)[C@@H]1C(=O)NCc1ncco1` [Example 68, (2S)-2-fluoro-2-[[(2S,5R)-3-methyl-2-(oxazol-2-ylmethylcarbamoyl)-7-oxo-1,6-diazabicyclo[3.2.1]oct-3-en-6-yl]oxy]lacetic acid lithium salt]: the half-maximal inhibitory concentration (IC50) is 310 nM in test [1] and 78 nM in test [2].

On to `CC1=C[C@@H]2CN(C(=O)N2O[C@@H](F)C(=O)O)[C@@H]1C(=O)NCCCS(N)(=O)=O` [Example 74, (2S)-2-fluoro-2-[[(2S,5R)-3-methyl-7-oxo-2-(3-sulfamoylpropylcarbamoyl)-1,6-diazabicyclo[3.2.1]oct-3-en-6-yl]oxy]acetic acid lithium salt], for which the results for the IC50 in test [1] and in test [2] were 280 nM and 590 nM, respectively.

With `CC1=C[C@@H]2CN(C(=O)N2O[C@@H](F)C(=O)O)[C@@H]1C(=O)NCC#N` [Example 82, (2S)-2-fluoro-2-[[(2S,5R)-2-(cyanomethylcarbamoyl)-3-methyl-7-oxo-1,6-diazabicyclo[3.2.1]oct-3-en-6-yl]oxy]acetic acid lithium salt], the values for the IC50 in test [1] and in test [2] were 85 nM and 28 nM, respectively.

Regarding `CC1=C[C@@H]2CN(C(=O)N2O[C@@H](F)C(=O)O)[C@@H]1C(=O)NOC[C@@H]1CC(F)(F)CN1` [Example 63, (2S)-2-(((2S,5R)-2-((((S)-4,4-difluoropyrrolidin-2-yl)methoxy)carbamoyl)-3-methyl-7-oxo-1,6-diazabicyclo[3.2.1]oct-3-en-6-yl)oxy)-2-fluoroacetic acid TFA salt], the IC50 in test [1] turned out to be 110 nM; in test [2], 230 nM.

With `CC1=C[C@@H]2CN(C(=O)N2O[C@@H](F)C(=O)O)[C@@H]1C(=O)NCCNS(C)(=O)=O` [Example 67, (2S)-2-fluoro-2-[[(2S,5R)-2-[2-(methanesulfonamido)ethylcarbamoyl]-3-methyl-7-oxo-1,6-diazabicyclo[3.2.1]oct-3-en-6-yl]oxy]acetic acid lithium salt], the IC50 in test [1] was 64 nM; in test [2] it was 340 nM.

`CC1=C[C@@H]2CN(C(=O)N2O[C@@H](F)C(=O)O)[C@@H]1CNC(=O)OC(C)(C)C` [Example 76, (2S)-2-[[(2S,5R)-2-[tert-butoxycarbonylamino)methyl]-3-methyl-7-oxo-1,6-diazabicyclo[3.2.1]oct-3-en-6-yl]oxy]-2-fluoro-acetic acid lithium salt]: the values for the IC50 in test [1] and in test [2] were 940 nM and 220 nM, respectively.

On to `CC1=C[C@@H]2CN(C(=O)N2OC(F)(F)C(=O)O)[C@@H]1C(N)=O` [Example 8, {[(2S,5R)-2-carbamoyl-3-methyl-7-oxo-1,6-diazabicyclo[3.2.1]oct-3-en-6-yl]oxy}(difluoro)acetic acid lithium salt], for which the IC50 was 1.5 nM in test [1] and 14 nM in test [2].

For `CC1=C[C@@H](C#N)N2C[C@@H]1N(O[C@H](F)C(=O)O)C2=O` [Example 95, (2R)-2-(((2S,5R)-2-cyano-4-methyl-7-oxo-1,6-diazabicyclo[3.2.1]oct-3-en-6-yl)oxy)-2-fluoroacetic acid lithium salt], the results for the half-inhibitory concentration (IC50) in test [1] and in test [2] were 35 nM and 1.3 nM, respectively.

Turning to `CC1=C[C@@H]2CN(C(=O)N2OCC(=O)O)[C@@H]1C(N)=O` [Example 10, {[(2S,5R)-2-carbamoyl-3-methyl-7-oxo-1,6-diazabicyclo[3.2.1]oct-3-en-6-yl]oxy}acetic acid lithium salt], the figures for the IC50 in test [1] and in test [2] were 430 nM and 51 nM, respectively.

For `CC1=C[C@@H]2CN(C(=O)N2OC(F)C(=O)O)[C@@H]1C(N)=O` (mixture of isomers) [Example 5, {[(2S,5R)-2-carbamoyl-3-methyl-7-oxo-1,6-diazabicyclo[3.2.1]oct-3-en-6-yl]oxy}(fluoro)acetic acid lithium salt (mixture of diastereomers)], the 50% inhibitory concentration (IC50) was determined as 4.4 nM in test [1] and 17 nM in test [2].

Turning to `CC1=C[C@@H]2CN(C(=O)N2O[C@@H](F)C(=O)O)[C@@H]1C(=O)NCCC(N)=O` [Example 71, (2S)-2-[[(2S,5R)-2-[(3-amino-3-oxo-propyl)carbamoyl]-3-methyl-7-oxo-1,6-diazabicyclo[3.2.1]oct-3-en-6-yl]oxy]-2-fluoro-acetic acid lithium salt], the IC50 in test [1] was 110 nM; in test [2], 75 nM.

For the molecule `CC1=C[C@@H]2CN(C(=O)N2OC(C)(F)C(=O)O)[C@@H]1C(N)=O` (mixture of isomers) [Example 11, 2-{[(2S,5R)-2-carbamoyl-3-methyl-7-oxo-1,6-diazabicyclo[3.2.1]oct-3-en-6-yl]oxy}-2-fluoropropanoic acid lithium salt (mixture of diastereomers)], the IC50 came to 230 nM in test [1] and 22000 nM in test [2].

With `NC(=O)[C@@H]1CC[C@@H]2CN1C(=O)N2O[C@H](F)C(=O)O` [Comparator 98, reference compound], the IC50 in test [1] came to 1.3 nM; in test [2], 2600 nM.

On to `O=C(O)C(F)ON1C(=O)N2C[C@H]1CC[C@H]2C(=O)NC1CCNCC1` (stereo partly shown) [Comparator 99, reference compound], for which the figures for the 50% inhibitory concentration (IC50) in test [1] and in test [2] were 30 nM and 82000 nM, respectively.

As to `CC1=C[C@@H](C(N)=O)N2C[C@@H]1N(OC(F)(F)C(=O)O)C2=O` [Example 91, 2-(((2S,5R)-2-carbamoyl-4-methyl-7-oxo-1,6-diazabicyclo[3.2.1]oct-3-en-6-yl)oxy)-2,2-difluoroacetic acid lithium salt], the values for the IC50 in test [1] and in test [2] were 0.47 nM and 18 nM, respectively.

In the case of `CC1=C[C@@H]2CN(C(=O)N2O[C@@H](F)C(=O)O)[C@@H]1C(=O)NCO` [Example 87, (2S)-2-fluoro-2-[[(2S,5R)-2-(hydroxymethylcarbamoyl)-3-methyl-7-oxo-1,6-diazabicyclo[3.2.1]oct-3-en-6-yl]oxy]acetic acid lithium salt], the IC50 in test [1] is 150 nM; in test [2], 11 nM.

On to `CC1=C[C@@H]2CN(C(=O)N2O[C@@H](F)C(=O)O)[C@@H]1C(=O)NCNS(N)(=O)=O` [Example 89, lithium salt], for which the results for the 50% inhibitory concentration (IC50) in test [1] and in test [2] were 33 nM and 150 nM, respectively.

For the molecule `CC1=C[C@@H]2CN(C(=O)N2O[C@@H](F)C(=O)O)[C@@H]1C(=O)NOCCS(N)(=O)=O` [Example 56, (2S)-2-fluoro-2-[[(2S,5R)-3-methyl-7-oxo-2-(2-sulfamoylethoxycarbamoyl)-1,6-diazabicyclo[3.2.1]oct-3-en-6-yl]oxy]acetic acid lithium salt], the IC50 in test [1] came out at 93 nM; in test [2] it was 220 nM.

As to `CC(=O)NCNC(=O)[C@@H]1C(C)=C[C@@H]2CN1C(=O)N2O[C@@H](F)C(=O)O` [Example 88, (2S)-2-fluoro-2-[[(2S,5R)-2-(acetamidomethylcarbamoyl)-3-methyl-7-oxo-1,6-diazabicyclo[3.2.1]oct-3-en-6-yl]oxy]acetic acid lithium salt], the IC50 in test [1] was 54 nM; in test [2] it was 45 nM.

The values are drawn from patent publication US10800778B2 (Entasis Therapeutics Limited, priority 2016, dated 2020).
